Test results published in patent US5840684A, “Glycopeptide antibiotic derivatives” (Eli Lilly and Company, priority 1995, dated 1998).
Values after ≈ are worked out from the molar mass of the structure shown.

Experiments:
[1] = system: Staphylococcus aureus SA1199B; format: cell-based
Protocol: (§1) The MIC's were determined using a standard broth micro-dilution assay.

[2] = system: Staphylococcus aureus S13E; format: cell-based
Protocol: as §1

Entercoccus faecium 2041 = experiment: broth micro-dilution MIC; format: cell-based; conditions: Entercoccus faecium 2041
Protocol: (§2) The formula I compounds have in vitro and in vivo activity against Gram-positive pathogenic bacteria. The MIC's were determined using a standard broth micro-dilution assay.

[3] = system: Staphylococcus haemolyticus 415; experiment: broth micro-dilution MIC; format: cell-based
Protocol: as §2

[4] = system: Enterococcus gallinarum 245; experiment: broth micro-dilution MIC; format: cell-based; conditions: Enterococcus gallinarum 245
Protocol: as §2

[5] = system: Streptococcus pneumoniae P1; experiment: broth micro-dilution MIC; format: cell-based
Protocol: as §2

[6] = system: Staphylococcus epidermidis 270; experiment: broth micro-dilution MIC; format: cell-based
Protocol: as §2

Entercoccus faecium 180 = experiment: broth micro-dilution MIC; format: cell-based; conditions: Entercoccus faecium 180
Protocol: as §2

[7] = system: Staphylococcus haemolyticus 105; experiment: broth micro-dilution MIC; format: cell-based
Protocol: as §2

[8] = system: vancomycin-resistant enterococci; experiment: broth micro-dilution, mean geometric MIC; format: cell-based, Enterococcus faecium and Enterococcus faecalis; conditions: enterococci, 24-hour incubation
[9] = system: Staphylococcus aureus X778; experiment: broth micro-dilution MIC; format: cell-based
Protocol: as §1

Entercoccus faecium 276 = experiment: broth micro-dilution MIC; format: cell-based
Protocol: as §1

[10] = system: Staphylococcus aureus SA1199; experiment: broth micro-dilution MIC; format: cell-based
Protocol: as §1

[11] = system: Staphylococcus aureus 447; experiment: broth micro-dilution MIC; format: cell-based
Protocol: as §1

[12] = system: Streptococcus pyogenes C203; experiment: broth micro-dilution MIC; format: cell-based
Protocol: as §1

[13] = system: Staphylococcus aureus 446; experiment: broth micro-dilution MIC; format: cell-based
Protocol: as §1

[14] = system: Staphylococcus aureus 491; experiment: broth micro-dilution MIC; format: cell-based
Protocol: as §1

[15] = system: Staphylococcus aureus 489; experiment: broth micro-dilution MIC; format: cell-based
Protocol: as §1

[16] = system: Entercoccus faecium 180-1; experiment: broth micro-dilution MIC; format: cell-based
Protocol: as §1

[17] = system: Staphylococcus aureus X400; experiment: broth micro-dilution MIC; format: cell-based
Protocol: as §1

[18] = system: vancomycin-susceptible enterococci; experiment: broth micro-dilution, mean geometric MIC; format: cell-based, Enterococcus faecium and Enterococcus faecalis; conditions: enterococci, 24-hour incubation
[19] = system: Staphylococcus aureus SA1199A; experiment: broth micro-dilution MIC; format: cell-based
Protocol: as §1

Structure (SMILES) | MIC [1] [µg/mL] | MIC [2] [µg/mL] | MIC (Entercoccus faecium 2041) [µg/mL] | MIC [3] [µg/mL] | MIC [4] [µg/mL] | MIC [5] [µg/mL] | MIC [6] [µg/mL] | MIC [7] [µg/mL] | mean geometric MIC, Vancomycin Resistant Strains [8] [µg/mL] | MIC [9] [µg/mL] | MIC (Entercoccus faecium 276) [µg/mL] | MIC [10] [µg/mL] | MIC [11] [µg/mL] | MIC [12] [µg/mL] | MIC [13] [µg/mL] | MIC [14] [µg/mL] | MIC [15] [µg/mL] | MIC [16] [µg/mL] | MIC [17] [µg/mL] | mean geometric MIC, Vancomycin Sensitive Strains [18] [µg/mL] | further results
CNC(CC(C)C)C(=O)NC1C(=O)NC(CC(N)=O)C(=O)NC2C(=O)NC3C(=O)NC(C(=O)NC(C(=O)O)c4cc(O)cc(O)c4-c4cc3ccc4O)C(OC3CC(C)(N)C(O)C(C)O3)c3ccc(c(Cl)c3)Oc3cc2cc(c3OC2OC(CO)C(O)C(O)C2OC2CC(C)(NCc3ccc(OC)c4ccccc34)C(O)C(C)O2)Oc2ccc(cc2Cl)C1O (stereo not drawn) [Compound 15] | 0.25 (≈ 0.142 µM) | 0.5 (≈ 0.284 µM) | ≤ 0.06 | 2 (≈ 1.13 µM) | ≤ 0.06 | ≤ 0.06 | 1 (≈ 0.567 µM) | 0.5 (≈ 0.284 µM) | 6.7 | 0.25 (≈ 0.142 µM) | ≤ 0.06 | 0.25 (≈ 0.142 µM) | 2 (≈ 1.13 µM) | ≤ 0.06 | 1 (≈ 0.567 µM) | 0.25 (≈ 0.142 µM) | ≤ 0.06 | ≤ 0.06 | 0.25 (≈ 0.142 µM) | 0.14 | MIC (Entercoccus faecium 180): 0.5 µg/mL (≈ 0.284 µM)
CNC(CC(C)C)C(=O)NC1C(=O)NC(CC(N)=O)C(=O)NC2C(=O)NC3C(=O)NC(C(=O)NC(C(=O)O)c4cc(O)cc(O)c4-c4cc3ccc4O)C(OC3CC(C)(N)C(O)C(C)O3)c3ccc(c(Cl)c3)Oc3cc2cc(c3OC2OC(CO)C(O)C(O)C2OC2CC(C)(NCc3ccc(OCCCC#N)cc3)C(O)C(C)O2)Oc2ccc(cc2Cl)C1O (stereo not drawn) [Compound 55] | 0.5 (≈ 0.283 µM) | 0.5 (≈ 0.283 µM) | 0.125 (≈ 0.0708 µM) |  |  | ≤ 0.06 | 1 (≈ 0.566 µM) | 4 (≈ 2.27 µM) | 13 | 0.5 (≈ 0.283 µM) | 0.5 (≈ 0.283 µM) | 0.5 (≈ 0.283 µM) | 4 (≈ 2.27 µM) | ≤ 0.06 | 0.5 (≈ 0.283 µM) | 0.5 (≈ 0.283 µM) | 1 (≈ 0.566 µM) | ≤ 0.06 | ≤ 0.06 | 1.7 | MIC (Entercoccus faecium 180): 2 µg/mL (≈ 1.13 µM); MIC [19]: ≤ 0.06 µg/mL
CNC(CC(C)C)C(=O)NC1C(=O)NC(CC(N)=O)C(=O)NC2C(=O)NC3C(=O)NC(C(=O)NC(C(=O)O)c4cc(O)cc(O)c4-c4cc3ccc4O)C(OC3CC(C)(N)C(O)C(C)O3)c3ccc(c(Cl)c3)Oc3cc2cc(c3OC2OC(CO)C(O)C(O)C2OC2CC(C)(NCc3ccc4c(c3)OCCO4)C(O)C(C)O2)Oc2ccc(cc2Cl)C1O (stereo not drawn) [Compound 56] | 0.5 (≈ 0.287 µM) | 0.125 (≈ 0.0718 µM) | 0.25 (≈ 0.144 µM) | 16 (≈ 9.19 µM) | 16 (≈ 9.19 µM) | ≤ 0.06 | 1 (≈ 0.575 µM) | 4 (≈ 2.3 µM) | 19 | 0.125 (≈ 0.0718 µM) | 0.25 (≈ 0.144 µM) | 0.125 (≈ 0.0718 µM) | 2 (≈ 1.15 µM) | ≤ 0.06 | 0.5 (≈ 0.287 µM) | 0.5 (≈ 0.287 µM) | 1 (≈ 0.575 µM) | ≤ 0.06 | ≤ 0.06 |  | MIC (Entercoccus faecium 180): 2 µg/mL (≈ 1.15 µM); MIC [19]: ≤ 0.06 µg/mL
CNC(CC(C)C)C(=O)NC1C(=O)NC(CC(N)=O)C(=O)NC2C(=O)NC3C(=O)NC(C(=O)NC(C(=O)O)c4cc(O)cc(O)c4-c4cc3ccc4O)C(OC3CC(C)(N)C(O)C(C)O3)c3ccc(c(Cl)c3)Oc3cc2cc(c3OC2OC(CO)C(O)C(O)C2OC2CC(C)(NCc3ccc4c(c3O)Cc3ccccc3-4)C(O)C(C)O2)Oc2ccc(cc2Cl)C1O (stereo not drawn) [Compound 103] | 2 (≈ 1.12 µM) | 1 (≈ 0.56 µM) | ≤ 0.06 | 8 (≈ 4.48 µM) | 8 (≈ 4.48 µM) | ≤ 0.06 | 1 (≈ 0.56 µM) | 4 (≈ 2.24 µM) | 4.0 | 0.5 (≈ 0.28 µM) | 0.25 (≈ 0.14 µM) | 1 (≈ 0.56 µM) | 1 (≈ 0.56 µM) | ≤ 0.06 | 0.5 (≈ 0.28 µM) | 1 (≈ 0.56 µM) | ≤ 0.06 | ≤ 0.06 | ≤ 0.06 | 0.33 | MIC [19]: ≤ 0.06 µg/mL
CNC(CC(C)C)C(=O)NC1C(=O)NC(CC(N)=O)C(=O)NC2C(=O)NC3C(=O)NC(C(=O)NC(C(=O)O)c4cc(O)cc(O)c4-c4cc3ccc4O)C(OC3CC(C)(N)C(O)C(C)O3)c3ccc(c(Cl)c3)Oc3cc2cc(c3OC2OC(CO)C(O)C(O)C2OC2CC(C)(NCc3cccc(OCc4ccc5ccccc5n4)c3)C(O)C(C)O2)Oc2ccc(cc2Cl)C1O (stereo not drawn) [Compound 125] | 2 (≈ 1.09 µM) | 1 (≈ 0.544 µM) | ≤ 0.06 | 2 (≈ 1.09 µM) | 12 (≈ 6.52 µM) | ≤ 0.06 | 1 (≈ 0.544 µM) | 4 (≈ 2.17 µM) | 3.4 | 2 (≈ 1.09 µM) | 2 (≈ 1.09 µM) | 0.5 (≈ 0.272 µM) | 2 (≈ 1.09 µM) | ≤ 0.06 | 4 (≈ 2.17 µM) | 1 (≈ 0.544 µM) | 2 (≈ 1.09 µM) | ≤ 0.06 | 1 (≈ 0.544 µM) | 0.14 | MIC (Entercoccus faecium 180): 1 µg/mL (≈ 0.544 µM)
CNC(CC(C)C)C(=O)NC1C(=O)NC(CC(N)=O)C(=O)NC2C(=O)NC3C(=O)NC(C(=O)NC(C(=O)O)c4cc(O)cc(O)c4-c4cc3ccc4O)C(OC3CC(C)(N)C(O)C(C)O3)c3ccc(c(Cl)c3)Oc3cc2cc(c3OC2OC(CO)C(O)C(O)C2OC2CC(C)(NCc3ccc(OCCC4CCCCC4)cc3)C(O)C(C)O2)Oc2ccc(cc2Cl)C1O (stereo not drawn) [Compound 127] | 2 (≈ 1.11 µM) | 2 (≈ 1.11 µM) | ≤ 0.06 | 4 (≈ 2.21 µM) | 4 (≈ 2.21 µM) | ≤ 0.06 | ≤ 0.06 | 2 (≈ 1.11 µM) | 1.2 | 1 (≈ 0.553 µM) | ≤ 0.06 | 2 (≈ 1.11 µM) | 2 (≈ 1.11 µM) | ≤ 0.06 | 1 (≈ 0.553 µM) | 1 (≈ 0.553 µM) | 2 (≈ 1.11 µM) | ≤ 0.06 | 2 (≈ 1.11 µM) | 0.33 | MIC (Entercoccus faecium 180): ≤ 0.06 µg/mL
CNC(CC(C)C)C(=O)NC1C(=O)NC(CC(N)=O)C(=O)NC2C(=O)NC3C(=O)NC(C(=O)NC(C(=O)O)c4cc(O)cc(O)c4-c4cc3ccc4O)C(OC3CC(C)(N)C(O)C(C)O3)c3ccc(c(Cl)c3)Oc3cc2cc(c3OC2OC(CO)C(O)C(O)C2OC2CC(C)(NCc3cccc(Oc4ccc(C(F)(F)F)cc4)c3)C(O)C(C)O2)Oc2ccc(cc2Cl)C1O (stereo not drawn) [Compound 132] | 2 (≈ 1.09 µM) | 2 (≈ 1.09 µM) | 1 (≈ 0.543 µM) | 2 (≈ 1.09 µM) | 2 (≈ 1.09 µM) | ≤ 0.06 | 2 (≈ 1.09 µM) | 1 (≈ 0.543 µM) | 1.2 | 2 (≈ 1.09 µM) | 1 (≈ 0.543 µM) | 1 (≈ 0.543 µM) | 2 (≈ 1.09 µM) | ≤ 0.06 | 1 (≈ 0.543 µM) | 0.5 (≈ 0.271 µM) | 1 (≈ 0.543 µM) | ≤ 0.06 | 1 (≈ 0.543 µM) | 0.048 | 
CNC(CC(C)C)C(=O)NC1C(=O)NC(CC(N)=O)C(=O)NC2C(=O)NC3C(=O)NC(C(=O)NC(C(=O)O)c4cc(O)cc(O)c4-c4cc3ccc4O)C(OC3CC(C)(N)C(O)C(C)O3)c3ccc(c(Cl)c3)Oc3cc2cc(c3OC2OC(CO)C(O)C(O)C2OC2CC(C)(NCc3ccc(OCCOC(C)(C)C)cc3)C(O)C(C)O2)Oc2ccc(cc2Cl)C1O (stereo not drawn) [Compound 154] | 0.25 (≈ 0.139 µM) | 0.25 (≈ 0.139 µM) |  | 4 (≈ 2.22 µM) | 4 (≈ 2.22 µM) | ≤ 0.06 | 0.5 (≈ 0.278 µM) | 4 (≈ 2.22 µM) | 2.8 | 0.5 (≈ 0.278 µM) | 0.5 (≈ 0.278 µM) | 2 (≈ 1.11 µM) | 2 (≈ 1.11 µM) | ≤ 0.06 | 2 (≈ 1.11 µM) | 0.5 (≈ 0.278 µM) | 1 (≈ 0.556 µM) | ≤ 0.06 | 2 (≈ 1.11 µM) | 0.072 | MIC (Entercoccus faecium 180): 1 µg/mL (≈ 0.556 µM)
